# In patent US20200330456A1, “NOVEL APPLICATION OF GZD824 AND PHARMACEUTICALLY ACCEPTABLE SALTS THEREOF IN TREATING DISEASES” (HEALTHQUEST PHARMA INC., priority 2016, published 2020):
# Columns and labels:
# [1] = test system: NALM6 (Ph-negative acute lymphoblastic leukemia cell line); experiment: CCK8 cell activity test, NALM6; format: cell-based; settings: GZD824 0-3 μM/L, 24 hours
# Method: 1.1 Two types of cells, i.e. NALM6 (Ph-negative acute lymphoblastic leukemia cell line) and SUPB15 (Ph-positive acute lymphoblastic leukemia cell line), were treated with GZD824 of different concentrations (0-3 μM/L) respectively. After 24 hours, CCK8 is added. The mixture was incubated for 2 hours, and then its absorption value at 450 nm was detected with a microplate reader. […] We plotted a chart of cell activity based on the growth inhibition function of GZD824 on these […] types of cells, which is as shown in FIG. 1.
# [2] = test system: NALM6 cells; experiment: Apoptosis kit (ANNEXIN V, PI) flow cytometry, NALM6; format: cell-based; settings: 24 hours
# Method: 1.2 After treating NALM6 and SUPB15 cells respectively with GZD824 (3 μM, 1 μM) and DMSO of different concentrations for 24 hours, apoptosis was detected using an apoptosis kit (ANNEXIN V, PI). Please refer to FIG. 2 for the results. After treating the two types of cells NALM6 and SUPB15 respectively with GZD824 of different concentrations (3 μM/L, 1 μM/L) for 24 hours, the cells were stained with the apoptosis kit (ANNEXIN V, PI), and apoptosis was detected with flow cytometry.
# 5.3 After treating NALM6 cells with GZD824, SRC suppressor (KX2-391), STAT3 suppressor (HO-3867) or DMSO for 24 hours, apoptosis was detected by using the apoptosis kit (ANNEXIN V, PI). The ratio of ANNEXIN V positive cells was analyzed by statistical methods. […] For the experimental results, please refer to FIG. 15.
# [3] = test system: primary pre-B ALL PDX in immunodeficient mouse (NSI); experiment: PDX mouse model, spleen size and weight; format: in vivo; settings: two weeks
# Text: 3.1 According to the conventional method, the primary leukemia cells from patients were transplanted to immunodeficient mouse (NSI) to construct PDX mouse model. Two months after the transplantation, leukemia cells from patients account for over 95% of the mouse spleen. 1×10^6 leukemia cells originated from the spleen of the PDX mouse (P #1, P #2 and P #3) were transplanted through caudal vein to the NSI mouse bodies of eight weeks old and treated with a semilethal irradiation dose. The mice were divided into three groups with three mice in each group. When the ratio of human CD45 reaches 1%±0.2% of peripheral blood leukocyte of PDX mice by flow cytometry, the PDX mice were treated with GZD824 (25 mg/kg), Imatinib (50 mg/kg) and DMSO respectively for two weeks and then executed. […] Please refer to FIG. 6 for the results. […] 3.2 The primary leukemia cells from patients were transplanted to immunodeficient mouse (NSI) to construct PDX mouse model. 1×10^6 leukemia cells originated from PDX mouse (P #4 and P #5) were transplanted through caudal vein to the NSI mouse bodies of eight weeks old and treated with semilethal irradiation dose. The mice were divided into three groups with three mice in each group. […]
# [4] = test system: primary pre-B ALL PDX in immunodeficient mouse (NSI); experiment: PDX mouse model, Giemsa / Hematoxylin-eosin staining of blood, spleen and marrow; format: in vivo; settings: PDX patient P #2; vs Imatinib and DMSO
# Method: 3.3 After executing mice in GZD824, Imatinib or DMSO groups, blood (upper FIG. 8), spleen (middle FIG. 8) and marrow (lower FIG. 8) tissues were stained with Giemsa staining or Hematoxylin-eosin staining method. 10-20 μL of mouse blood drop was pipetted to a glass slide, and evenly spread on the slide, dried in shade at room temperature, stained with Giemsa working fluid for 15 minutes and eluted with eluents. After being fixed with neutral formaldehyde for 24 hours, the mouse spleen and marrow were dehydrated, made transparent, waxed, embedded, sliced, stained and then observed with a microscope.
# [5] = test system: phosphorylated SRC; experiment: Western blot of NALM6 cells, phospho-SRC; format: cell-based; settings: 3 μM/L, 1 μM/L, 24 hours
# Method: 5.1. NALM6 cells treated with GZD824 were detected by Western blot method. After treating NALM6 cells with GZD824 of different concentrations (3 μM/L, 1 μM/L) for 24 hours, cells were collected and lysed to extract proteins. According to procedure of Western blot method, the extracted total proteins were analyzed with phospho-SRC, SRC, phospho-STAT3, STAT3, phospho-Rb, Rb and c-Myc antibodies. […] From the protein perspective, GZD824 kills leukemia cells through suppressing SRC/STAT3 signal pathway. Please refer to FIG. 13 for the experimental results.
# [6] = test system: CCKN1A gene expression; experiment: Fluorescence quantitative PCR in NALM6 cells, CCKN1A; format: cell-based; settings: 3 μM/L, 24 hours, vs DMSO
# Method: 5.2 After being treated with 3 μM/L GZD824 and DMSO for 24 hours, NALM6 cells were collected to 1 ml TRIzol to extract RNA and reversely transcribed into cDNA. The expressions of four genes, i.e. BCL-XL, CCND1, CDK4 and CCKN1A, in these two groups of cells were detected with the fluorescence quantitative PCR method. […] From the molecular perspective, the mechanism of GZD824 killing leukemia cells can be explained. For the experimental results, please refer to FIG. 14.
# [7] = test system: human primary leukemia cells from P #2 PDX mouse; experiment: Apoptosis of human primary leukemia cells from P #2 PDX mouse blood, spleen and marrow; format: cell-based; settings: P #2 PDX cells; 1 μM/L, 24 hours
# Method: 6.1 Human primary leukemia cells were collected from P #2 PDX mouse blood, spleen and marrow and the leukemia cells originated from these three different mouse organs were co-cultured with 1 μM/L GZD824 or DMSO for 24 hours. The ratios of ANNEXIN V positive cells were analyzed by statistical methods. […] Please refer to FIG. 16 for the results.
# [8] = test system: human primary leukemia cells from P #1 PDX mouse spleen; experiment: Apoptosis of human primary leukemia cells from P #1 PDX mouse spleen, with and without IGF-1; format: cell-based; settings: P #1 PDX spleen cells; GZD824 1 μM/L, 24 hours, vs DMSO
# Method: 6.2 Human primary leukemia cells were extracted from P #1 PDX mouse spleen and co-cultured with DMSO, GZD824 (1 μM/L), IGF-1 (10 ng/mL), or GZD824 (1 μM/L) and IGF-1 (10 ng/mL) for 24 hours. The ratios of ANNEXIN V positive cells were analyzed by statistical methods. […] Please refer to FIG. 17 for the experimental results.
# [9] = test system: IRS1; experiment: Immunoblotting of NALM6 cells, IRS1; format: cell-based; settings: 3 μM/L, 1 μM/L, 24 hours
# Method: 6.3 After treating NALM6 cells with GZD824 of different concentrations (3 μM/L, 1 μM/L) for 24 hours, the cells were collected and lysed. With immunoblotting method, anti-phospho-AKT, AKT and IRS1 antibodies were used to analyze the lysates.
compound,measurement,setting,value
"Cc1ccc(C(=O)Nc2ccc(CN3CCN(C)CC3)c(C(F)(F)F)c2)cc1C#Cc1cnc2[nH]ncc2c1 [GZD824, (3-((1H-pyrazol[3,4-b]pyridine-5-substituted)ethinyl)-4-methyl-N-(4-((4-methylpiperazine-1-substituted)methyl)-3-(trifluoromethyl)phenyl)benzamide)]","cell activity (CCK8, absorption at 450 nm)",[1],prominently decrease the cell activity
same,apoptosis (ANNEXIN V positive cells),"[2]; 3 μM, 1 μM, vs DMSO",prominently enhance apoptosis
same,"ratio of apoptosis (ANNEXIN V positive cells), comparison of inhibitors",[2]; GZD824 vs KX2-391 vs HO-3867 vs DMSO,highest ratio of apoptosis
same,sizes of mouse spleens,"[3]; PDX P #1, P #2, P #3, GZD824 25 mg/kg, vs Imatinib (50 mg/kg) and DMSO groups",prominently smaller than those of the other two groups
same,sizes of mouse spleens,"[3]; PDX P #4 and P #5, vs Imatinib and DMSO groups",no prominent difference from those of the other two groups
same,"infiltration of primary leukemia cells in mouse blood, spleen and marrow (staining)",[4],prominently decrease the infiltration of the primary leukemia cells
same,expression of phosphorylated SRC,[5],suppresses the expression
same,expression of CCKN1A gene,[6],up-regulated
same,"ratio of apoptosis of leukemia cells originated from the mouse marrow, compared with blood and spleen",[7],lowest
same,apoptosis of primary leukemia cells (ANNEXIN V positive cells),[8],facilitate apoptosis of the primary leukemia cells
same,expression of IRS1,[9],down-regulate the expression
